We go through one molecule from article PMC5454592, “Pharmacological and Toxicological Properties of the Potent Oral γ-Secretase Modulator BPN-15606” (The Journal of Pharmacology and Experimental Therapeutics, 2017).

The Tmax is the time at which the peak concentration occurs. What is called bioavailability is dose-corrected exposure relative to a reference, in per cent. A high value points to good availability.

The structures appear in SMILES notation. “Also recorded” adds a separate entry of the source. Like-named read-outs stand apart in the source and are kept apart here. Bounds are passed on as bounds.

Series [1] can be described thus: Toxicokinetics in rats (7-day po). The class given is in vivo. The conditions noted are these: male, Sprague-Dawley, rat, plasma; for MRT last: day 1, read-out: mean residence time to the last time point. The protocol:
Data were subjected to noncompartmental analysis using WinNonlin Phoenix Model 200 (for extravascular administration) or Model 201 (for i.v. bolus administration) and the sparse sampling feature; a uniform weighting factor was applied to each data set. Time to maximum plasma concentration (Tmax) and maximum plasma concentration (Cmax) values were determined directly from the data. Area under the plasma concentration–time curve to the last time point (AUClast) values were calculated using the log/linear trapezoidal (i.v. dose) or linear up/log down trapezoidal (po dose). Values were calculated using the plasma data from composite groups. The dose administered was input to the program as mg/kg, and as a result no additional corrections for individual body weights of the animals were necessary. The following parameters and constants were determined for the i.v. and po groups: observed Cmax, Tmax, AUClast, area under the plasma concentration–time curve extrapolated to infinity, terminal phase elimination half-life, and mean residence time to the last time point. The volume of distribution at steady state and clearance were calculated using the i.v. group data. Bioavailability after oral administration was calculated using the AUClast values for both the i.v. and po groups.
The objectives of this toxicity study were to determine maximum tolerated dose (MTD), characterize the potential toxicity, and calculate toxicokinetic parameters of BPN-15606 in adult male Sprague–Dawley rats (8–10 weeks of age) following daily po dose administration for 7 consecutive days, and to evaluate its potential to damage chromosomes or cause mitotic spindle abnormalities in vivo, as measured by the incidence of micronucleus formation in RNA-containing erythrocytes (bone marrow micronucleus assay). An overview of the study design is presented in Supplemental Table 8. Male rats were administered BPN-15606 po for 7 consecutive days at 30, 100, or 300 mg/kg (groups 2, 3, and 4). A control group (group 1) was given vehicle, 15% Labrasol/85% sterile water, at an equivalent dose volume (10 ml/kg). A 375 mg/kg dose (group 5) was included for determination of day 1 plasma drug levels. Clinical observations were recorded twice daily.

The test system of series [2] is bone marrow polychromatic erythrocytes. The series can be described thus: Bone marrow micronucleus assay in rats. The class given is in vivo. The following applies: 7 days at 30 or 100 mg/kg. The protocol: The micronucleus component of this study was performed to evaluate the ability of BPN-15606 to induce chromosomal damage in bone marrow of male Sprague–Dawley rats. Rats (n = 5/group) were scheduled to receive single daily doses of BPN-15606 for 7 days at 30, 100, and 300 mg/kg/d (groups 2, 3, and 4, respectively), with euthanasia scheduled 24 hours after the final dose. Animals receiving 300 mg/kg/d were sacrificed in moribund condition on day 3 or 4 due to excessive toxicity, and micronucleus formation was not evaluated; all other treated animals survived to necropsy. Bone marrow samples collected from the low and mid dose groups (30 and 100 mg/kg) were evaluated for cytotoxicity and for micronucleus formation (see Supplemental Table 8). Three bone marrow smear slides were prepared per animal and fixed in absolute methanol. […] Two slides per animal were stained with acridine orange, coded, and evaluated (blind) using epifluorescence microscopy. […] The criteria employed for identifying and quantitating micronuclei are those described by [Schmid (1975)]. Two principal parameters were determined, as follows: 1) the number of PCE among 200 total red blood cells (RBC) per animal (PCE/RBC ratio), which provides an index of bone marrow cytotoxicity, and 2) the number of micronucleated RNA-positive PCE among a total of 2000 PCE per animal, which provides an index of chromosomal damage.

The test system of another series is HReN-mGAP AD ReN cells. Briefly: CytoTox-ONE (lactate dehydrogenase) assay in 3D culture. The series is classed as cell-based. The following applies: 70 nM; 1-week-old treated media. As for the experimental part: HReN-mGAP AD ReN cell expression APP^Swedish/London and Presenilin 1^ΔE9 were previously described ([Choi et al., 2014]). The HReN-mGAP AD ReN cells were three-dimensional (3D)–differentiated for 7 weeks, as previously described ([Choi et al., 2014]). The cultures were then harvested and analyzed for the soluble (conditioned media) and insoluble Aβ40/42/38 and p-tau/tau levels, using Meso Scale Discovery electrochemiluminescence system. BPN-15606 (70 nM) and the same volume of DMSO controls were treated in the last 4 weeks. The potential toxicity of the drugs was monitored by CytoTox-ONE (lactate dehydrogenase) assay after 1 week of the treatments. At the end of the treatments, the soluble (media) and the insoluble fractions (5 M GuHCl-soluble extracts) were collected and analyzed for Aβ38, Aβ40, and Aβ42 with MSD enzyme-linked immunosorbent assay (ELISA; V-Plex 6E10 Aβ40/Aβ42/Aβ38 kit). The custom-made plates were used for detecting total tau (BT2; ThermoFisher Scientific, Sommerset, NJ) and pThr181 tau (At270; ThermoFisher Scientific, Sommerset, NJ). The insoluble fraction was dissolved in 5 M GuHCl, and pThr181 tau, total tau, Aβ40, Aβ42, and Aβ38 concentrations were determined by MSD ELISA. The levels of the control protein Tuj1 were determined by dot-blot analysis in the GuHCl lysates (data not shown).

A short description of a further series: PK in mouse (i.v./po). The class given is in vivo. The conditions noted are these: male, plasma, CD-1 mice, 5 mg/kg po vs 1 mg/kg i.v. The protocol:
Male CD-1 mice and male Sprague–Dawley rats were administered a single dose of BPN-15606 by i.v. or oral gavage (po) dose routes to assess oral bioavailability. Mice and rats received BPN-15606 as a single i.v. dose at 1 mg/kg (n = 5) or a single po dose at 5 mg/kg (n = 5). Blood was collected from mice and rats at 5 (i.v. only), 15, and 30 minutes, and 1, 2, 4, 8, and 12 hours postdose for processing to plasma. For mice, brains were collected from both dose groups (i.v. and po) at 1, 4, 8, and 12 hours postdose. For rats, brains were collected from those same animals at the 12-hour time point only. […]
Data were subjected to noncompartmental analysis using WinNonlin Phoenix Model 200 (for extravascular administration) or Model 201 (for i.v. bolus administration) and the sparse sampling feature; a uniform weighting factor was applied to each data set. Time to maximum plasma concentration (Tmax) and maximum plasma concentration (Cmax) values were determined directly from the data. Area under the plasma concentration–time curve to the last time point (AUClast) values were calculated using the log/linear trapezoidal (i.v. dose) or linear up/log down trapezoidal (po dose). Values were calculated using the plasma data from composite groups. […] The volume of distribution at steady state and clearance were calculated using the i.v. group data. […]

Take `COc1nc(-c2cc(C)c(N[C@@H](C)c3ccc(F)cc3)nn2)ccc1-n1cnc(C)c1` [BPN-15606, (S)-N-(1-(4-fluorophenyl)ethyl)-6-(6-methoxy-5-(4-methyl-1H-imidazol-1-yl)pyridin-2-yl)-4-methylpyridazin-3-amine]: the Tmax in series [1] (30 mg/kg, rats, 30 mg/kg, day 1, read-out: mean Tmax) is 13.3 h; in series [1] (30 mg/kg, rats, 30 mg/kg, day 7, read-out: mean Tmax) it was 6.7 h; in series [1] (rats po, depending on dose, read-out: Tmax for individual animals), 4 to 24 h; in series [1] (rats, 100 and 300 dose groups, day 1, read-out: mean Tmax (time to the peak plasma drug level)), 18.7 h. The MRT last in series [1] (rats, 30 mg/kg) was 9.1 h; in series [1] (rats, 100 mg/kg) it was 13.6 h. Further, in series [2], the “micronucleus induction in bone marrow (micronucleated PCE)” value is recorded as “did not induce micronuclei; also recorded: no statistically significant increase”. Further, in series [2], the “suppression of PCE among RBC in bone marrow” value is “no significant suppression”. In addition, the “toxicity (Cytotox cell death lactate dehydrogenase assay)” value in the series on HReN-mGAP AD ReN cells is “did not induce any significant toxicity”. Moreover, the bioavailability in the series “PK in mouse (i.v./po)” was greater than 60%.
